Assay results published in patent US7485641B2, “Substituted 3-amino-pyrrolidino-4-lactams” (Pfizer, Inc., priority 2006, dated 2009).
Where a name gives a salt, the structure may show the parent alone.

molecular target: T1, DPP-IV (Homo sapiens, UniProt P27487); assay: In vitro assay for dipeptidyl peptidase inhibition; assay type: biochemical; conditions: Examples 156-162; n-value in brackets; IC50's or percent inhibition at 300 nM; read-out: DPP-IV inhibition
T1 construct: purchased Enzyme Systems Products SPE-01
T1 sequence (P27487 whole entry, species assumed): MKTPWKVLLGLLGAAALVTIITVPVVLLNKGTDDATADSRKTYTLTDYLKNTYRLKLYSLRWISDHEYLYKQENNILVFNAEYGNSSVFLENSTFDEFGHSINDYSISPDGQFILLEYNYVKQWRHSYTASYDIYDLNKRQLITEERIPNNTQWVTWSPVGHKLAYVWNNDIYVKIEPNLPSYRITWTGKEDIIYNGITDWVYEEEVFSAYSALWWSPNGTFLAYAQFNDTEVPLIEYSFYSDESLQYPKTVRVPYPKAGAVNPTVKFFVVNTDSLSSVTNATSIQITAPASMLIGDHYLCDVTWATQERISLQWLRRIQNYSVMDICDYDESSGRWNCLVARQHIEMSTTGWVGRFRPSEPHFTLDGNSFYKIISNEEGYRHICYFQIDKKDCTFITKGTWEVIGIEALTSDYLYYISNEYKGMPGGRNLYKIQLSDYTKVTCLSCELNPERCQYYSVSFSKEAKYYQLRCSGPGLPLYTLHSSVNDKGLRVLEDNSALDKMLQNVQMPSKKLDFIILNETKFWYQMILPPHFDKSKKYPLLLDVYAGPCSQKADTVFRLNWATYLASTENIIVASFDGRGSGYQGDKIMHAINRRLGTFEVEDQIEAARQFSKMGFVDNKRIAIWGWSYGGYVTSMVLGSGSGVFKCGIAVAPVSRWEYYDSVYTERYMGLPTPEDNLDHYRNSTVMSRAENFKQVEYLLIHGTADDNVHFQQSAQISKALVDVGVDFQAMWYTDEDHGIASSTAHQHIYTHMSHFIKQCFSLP

**Q.** For `N[C@H]1CN(C(=O)c2cc3ccccc3o2)C[C@@H]1N1CCCCC1=O` [Example 156, 1-[(3S,4S)-4-Amino-1-(benzofuran-2-carbonyl)-pyrrolidin-3-yl]-piperidin-2-one hydrochloride], which IC50 is on record?
**A.** 187 nM

**Q.** `N[C@H]1CN(C(=O)c2cc3cc(Cl)ccc3o2)C[C@@H]1N1CCCCC1=O` [Example 157, 1-((3S,4S)-4-amino-1-(5-chlorobenzofuran-2-carbonyl)pyrrolidin-3-yl)piperidin-2-onetrifluoroacetate] was tested. Which IC50 did it give?
**A.** 212 nM

**Q.** With `N[C@H]1CN(C(=O)c2cc3ccc(Cl)cc3o2)C[C@@H]1N1CCCCC1=O` [Example 158, 1-((3S,4S)-4-amino-1-(6-chlorobenzofuran-2-carbonyl)pyrrolidin-3-yl)piperidin-2-onetrifluoroacetate] as the compound, how does the IC50 read?
**A.** 231 nM

**Q.** For `COc1ccc2oc(C(=O)N3C[C@H](N)[C@@H](N4CCCCC4=O)C3)cc2c1` [Example 159, 1-[(3S,4S)-4-Amino-1-(5-methoxy-benzofuran-2-carbonyl)-pyrrolidin-3-yl]-piperidin-2-onehydrochloride], which IC50 is on record?
**A.** 79.3 nM

**Q.** `N[C@H]1CN(C(=O)c2cc3ccccc3s2)C[C@@H]1N1CCCCC1=O` [Example 160, 1-[(3S,4S)-4-Amino-1-(benzo[b]thiophene-2-carbonyl)-pyrrolidin-3-yl]-piperidin-2-onehydrochloride] was tested. Which IC50 did it give?
**A.** 317 nM

**Q.** For `N[C@H]1CN(C(=O)c2cc3cc(Cl)ccc3[nH]2)C[C@@H]1N1CCCCC1=O` [Example 161, 1-[(3S,4S)-4-Amino-1-(5-chloro-1H-indole-2-carbonyl)-pyrrolidin-3-yl]-piperidin-2-onehydrochloride], which IC50 is on record?
**A.** 1160 nM

**Q.** For `COc1ccc2[nH]c(C(=O)N3C[C@H](N)[C@@H](N4CCCCC4=O)C3)cc2c1` [Example 162, 1-[(3S,4S)-4-Amino-1-(5-methoxy-1H-indole-2-carbonyl)-pyrrolidin-3-yl]-piperidin-2-onehydrochloride], which IC50 is on record?
**A.** 1460 nM

same assay, conditions: n-value given in brackets; read-out: DPP-IV IC50

**Q.** With `N[C@H]1CN(c2cc(N3CCC(F)(F)C3)ncn2)C[C@@H]1N1CC(F)(F)CCC1=O` [Example 2, 1-((3S,4S)-4-amino-1-(6-(3,3-difluoropyrrolidin-1-yl)pyrimidin-4-yl)pyrrolidin-3-yl)-5,5-difluoropiperidin-2-one] as the compound, how does the IC50 read?
**A.** 8.39 nM

**Q.** Which IC50 does the source give for “N-((R)-1-{4-[(3S,4S)-3-Amino-4-(2-oxo-piperidin-1-yl)-pyrrolidin-1-yl]-[1,3,5]triazin-2-yl}-pyrrolidin-3-yl)-acetamidetrifluoracetate [Example 43]” here?
**A.** 227 nM

tested on: KK/H1J mice; assay: In vivo assay for glucose lowering (oral glucose tolerance test); conditions: 4-6 week old fasted KK/H1J mice, oral dosing in 0.5% methylcellulose, glucose at 15 minutes, plasma glucose at 45 minutes
Method: The glucose lowering effects of the compound of Example 2 were exemplified in 4-6 week old KK/H1J mice (Jackson Labs) in the context of an oral glucose tolerance test.
The mice were fasted overnight (about 14-18 hours), but allowed free access to water. After fasting, (time “t”=0), 25 μL of blood was drawn from the retro-orbital sinus and added to 0.025% heparinized saline (100 μL) on ice. The mice (10 per group) were then orally dosed with a solution of a compound of formula (1) in 0.5% methylcellulose (0.2 mL/mouse). Two controls groups received only 0.5% methylcellulose. At time=15 minutes, the mice were bled, as described above, and then dosed with […] glucose in distilled water (0.2 mL/mouse). The first control group was dosed with glucose. The second control group was dosed with water. At time=45 minutes, the mice were again bled, as described above. The blood samples were centrifuged, the plasma collected and analyzed for glucose content on a Roche-Hitachi 912 glucose analyzer.

**Q.** With `N[C@H]1CN(c2cc(N3CCC(F)(F)C3)ncn2)C[C@@H]1N1CC(F)(F)CCC1=O` [Example 2, 1-((3S,4S)-4-amino-1-(6-(3,3-difluoropyrrolidin-1-yl)pyrimidin-4-yl)pyrrolidin-3-yl)-5,5-difluoropiperidin-2-one] as the compound, how does the “percent (%) inhibition of glucose excursion relative to the two control groups” value read?
**A.** 39.8%
